Data reported in patent EP1201248A2, “Combination therapy of angiotensin converting enzyme inhibitor, side-effect reduced amount of aldosterone antagonist and diuretic for treatment of cardiovascular disease” (priority 1995, dated 1996).

Tests used:
[1] = cited from earlier work
[2] = spironolactone 100 mg/day coadministered with an ACE inhibitor; congestive heart failure; cited from earlier work
[3] = Human clinical trial of ACE inhibitor, spironolactone and loop diuretic: weight, vital signs and cardiac assessments; assay type: in vivo, humans; conditions: for Supine diastolic BP, Mean Change from Baseline to Week 12 / Supine pulse, Mean Change from Baseline to Week 12 / Supine systolic BP, Mean Change from Baseline to Week 12 / Weight, Mean Change from Baseline to Week 12: with stable ACE inhibitor and loop diuretic, spread in parentheses
Excerpt: Concurrent medication within the past 30 days. • 2. 12-lead ECG • 3. […] Signs and symptoms within the past 30 days.
All statistical methods were two-sided.

[4] = spironolactone 50 mg/day to 100 mg/day (average 73 mg/day) and captopril; 90-patient study; cited from earlier work
[5] = Human clinical trial of ACE inhibitor, spironolactone and loop diuretic: adverse events, hyperkalemia incidence, hospitalizations, deaths; conditions: patients previously at the 50 mg dose
[6] = Human clinical trial of ACE inhibitor, spironolactone and loop diuretic: clinical laboratory values and neurohormones

## CC(=O)S[C@@H]1CC2=CC(=O)CC[C@]2(C)[C@H]2CC[C@@]3(C)[C@@H](CC[C@@]34CCC(=O)O4)[C@H]12 [Spironolactone, 17-hydroxy-7a-mercapto-3-oxo-17a-pregn-4-ene-21-carboxylic acid γ-lactone acetate]
[1]; cohort treated with spironolactone sub-cutaneously, side-by-side with a captopril cohort
  fibrosis in hypertensive rats: found to prevent fibrosis in the hypertensive-rat cohort
[1]; irrespective of left ventricular hypertrophy and hypertension
  fibrosis in animal models: shown to prevent fibrosis in animal models
[2]
  patients in whom treatment was highly effective: 13 of 16
[3]; 25 mg, 50 mg and 75 mg groups, all visits, standing and supine
  mean systolic and diastolic blood pressure, change: decreases in mean systolic and diastolic blood pressure
[3]; 75 mg dose group, Day 9 and Week 4, not observed at later visits
  body weight, change from baseline: more weight loss than other patients
[3]; Day 9 (p = 0.019), not seen at later visits (p >0.20)
  sodium retention score, dose response: higher doses showing more reduction in sodium retention score
[3]; Week 8 (p = 0.004), compared to the placebo group, not observed at Week 12
  changes in loop diuretic therapy: more patients on the higher doses of spironolactone had decreases in the loop diuretic dose
[3]; spironolactone 25 mg/d
  Supine diastolic BP, Mean Change from Baseline to Week 12: -2.74 ( 9.57)
  Supine pulse, Mean Change from Baseline to Week 12: -1.40(10.00) BPM
  Supine systolic BP, Mean Change from Baseline to Week 12: -4.46(13.97)
  Weight, Mean Change from Baseline to Week 12: -0.16 (3.02)
[3]; spironolactone 50 mg/d
  Supine diastolic BP, Mean Change from Baseline to Week 12: -5.11(11.11)
  Supine pulse, Mean Change from Baseline to Week 12: -3.21(11.27) BPM
  Supine systolic BP, Mean Change from Baseline to Week 12: -7.04(15.83)
  Weight, Mean Change from Baseline to Week 12: 0.62 (2.05)
[3]; spironolactone 75 mg/d
  Supine diastolic BP, Mean Change from Baseline to Week 12: -5.91 (9.05)
  Supine pulse, Mean Change from Baseline to Week 12: -1.07(13.79) BPM
  Supine systolic BP, Mean Change from Baseline to Week 12: -5.68(15.62)
  Weight, Mean Change from Baseline to Week 12: -0.81 (2.70)
[3]; spironolactone groups vs placebo group
  NYHA Class, improvement: the difference was not statistically significant
[4]
  control of refractory CHF: effective to control refractory CHF without serious incidents of hyperkalemia
[5]
  deaths within 30 days after the study was completed: Three patients died
[6]; Day 9, Week 4 and Week 12 (P ≤0.001)
  PRA, change from baseline, dose-response: greater increases in PRA
[6]; Week 12 (p = 0.002)
  Urinary aldosterone excretion, change from baseline, dose response: Greater increases were seen at higher doses
[6]; all active treatments, all treatment visits
  N-Terminal Atrial Natriuretic Factor (ANF), change from baseline: decreases from baseline at all treatment visits
[6]; all treatment period visits (p <0.001)
  serum potassium, change from baseline, dose-response: larger increases in potassium
